The source of these data is ChEMBL document CHEMBL1201862, “PubChem BioAssay data set” (2004).

Among the test systems are OVCAR-4; NCI/ADR-RES; OVCAR-5; EKVX; OVCAR-8; LOX IMVI; MDA-N; SN12C; HOP-62; SK-MEL-2; RXF 393; NCI-H226; CAKI-1; MOLT-4; SK-MEL-28; KM12; SR; RPMI-8226; DU-145; HL-60.
Common to all, as to assay: DTP human tumour cell line panel, 48 h

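Grown in 96-well plates, cells were treated for 48 hours with each compound at five concentrations. Insufficient inhibition: endpoint recorded as highest concentration tested. Abbreviation: GI50, concentration required for 50% inhibition of growth.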 Calls of active or inactive are those of the source. Cut-off read from the data, not from the text of the source: active = GI50 up to about 1.1 µM and inactive = higher. Some results are limits rather than exact numbers.

`COc1cccc(NC(=O)C(C#N)=C(SC)SC)c1`: the GI50 in the test with OVCAR-4, in the test on NCI/ADR-RES, with OVCAR-5, in the test with EKVX, with OVCAR-8 and with LOX IMVI was > 100 µM (inactive) in each case. The GI50 in the test on MDA-N, in the test on SN12C, with HOP-62, in the test with SK-MEL-2, in the test with RXF 393 and with NCI-H226 was > 100 µM (inactive) in each case. Further, the GI50 was 95.1 µM (inactive) in the test with CAKI-1, 62.2 µM (inactive) in the test on MOLT-4, > 100 µM (inactive) in the test on SK-MEL-28 and > 100 µM (inactive) with KM12.

Regarding `OCCN(CCO)c1ccc2c(-c3ccccc3)cc(N(CCO)CCO)nc2n1`, the GI50 in the test on OVCAR-4 was > 100 µM (inactive); with NCI/ADR-RES it was > 100 µM (inactive); in the test on OVCAR-5 it was > 100 µM (inactive); in the test on EKVX it was > 100 µM (inactive); in the test with OVCAR-8, > 100 µM (inactive); in the test with SR, 20 µM (inactive). For the same compound, the GI50 with RPMI-8226, in the test on SN12C, with HOP-62, with SK-MEL-2, in the test on RXF 393 and in the test with NCI-H226 was > 100 µM (inactive) each time. The GI50 with CAKI-1, with MOLT-4, in the test on SK-MEL-28, in the test on DU-145 and in the test with KM12 was > 100 µM (inactive) in each case.

For the compound `CC(C(O)c1ccccc1)[N+](=O)[O-]` (configuration not stated), the GI50 in the test with OVCAR-4 is 24.7 µM (inactive); in the test on NCI/ADR-RES, 28.1 µM (inactive); in the test on OVCAR-5, 24.1 µM (inactive); in the test with EKVX, 30 µM (inactive); with OVCAR-8, 16.4 µM (inactive); with LOX IMVI, 2.29 µM (inactive). Also, the GI50 with SR is 2.68 µM (inactive); with RPMI-8226, 2.9 µM (inactive); in the test on SN12C it was 18.1 µM (inactive); in the test with HOP-62, 25.3 µM (inactive); in the test with SK-MEL-2 it was 19.5 µM (inactive); in the test on RXF 393, 10.9 µM (inactive). In addition, the GI50 was 24.4 µM (inactive) in the test on NCI-H226; 14.2 µM (inactive) with CAKI-1; 1.65 µM (inactive) with MOLT-4; 19.8 µM (inactive) with SK-MEL-28; 12.7 µM (inactive) in the test with DU-145; 4.79 µM (inactive) in the test on HL-60. In addition, the GI50 in the test with KM12 is 19.4 µM (inactive).

`Cc1cc(S(=O)(=O)O)c(NC(=O)C(=O)C2C=CCS2(=O)=O)cc1Cl` (configuration not stated): the GI50 with OVCAR-4, in the test on OVCAR-5, in the test on EKVX, in the test with OVCAR-8, in the test with LOX IMVI and with SR was > 100 µM (inactive) throughout. The GI50 with RPMI-8226, with SN12C, in the test with HOP-62, in the test on SK-MEL-2, with RXF 393 and in the test on NCI-H226 was > 100 µM (inactive) in each case. Further, the GI50 in the test on CAKI-1, in the test with MOLT-4, in the test with SK-MEL-28, in the test with HL-60 and in the test with KM12 was > 100 µM (inactive) each time.

Regarding `COc1cc2c(cc1OC)C(c1ccccc1CCCCl)=NCC2`, the GI50 with OVCAR-4 is 91.4 µM (inactive); in the test with NCI/ADR-RES it was > 100 µM (inactive); in the test on OVCAR-5, > 100 µM (inactive); with EKVX, 90.2 µM (inactive); in the test on OVCAR-8, 97.5 µM (inactive); in the test on RPMI-8226, 14.3 µM (inactive). Further, the GI50 in the test with SN12C was 93.1 µM (inactive); in the test on HOP-62, > 100 µM (inactive); in the test with SK-MEL-2, > 100 µM (inactive); in the test on RXF 393, > 100 µM (inactive); with NCI-H226 it was 80.4 µM (inactive); in the test with CAKI-1, > 100 µM (inactive). Moreover, the GI50 with MOLT-4 is 80.4 µM (inactive); with SK-MEL-28, 19.1 µM (inactive); with DU-145 it was > 100 µM (inactive); with HL-60, 28.8 µM (inactive); in the test on KM12 it was 55.6 µM (inactive).

With `Cc1cc2[nH]c3c(C#N)c(-c4ccccc4)c(/C=N/c4ccc(Cl)cc4)c(=O)n3c2cc1C`, the GI50 with OVCAR-4, with NCI/ADR-RES, in the test with OVCAR-5, in the test on EKVX, in the test with OVCAR-8 and in the test on LOX IMVI was > 100 µM (inactive) throughout. The GI50 with RPMI-8226, with MDA-N, in the test with SN12C, with HOP-62, in the test with SK-MEL-2 and in the test with RXF 393 was > 100 µM (inactive) in each case. Also, the GI50 in the test on NCI-H226, in the test on CAKI-1, in the test on SK-MEL-28 and in the test with KM12 was > 100 µM (inactive) each time.

For `Cc1ccc(-n2cnc3c(N/N=C4\SCC(=O)N4c4ccccc4)ncnc32)cc1`, the GI50 was 8.75 µM (inactive) with OVCAR-4; 8.36 µM (inactive) in the test on NCI/ADR-RES; 12.2 µM (inactive) in the test with OVCAR-5; 14.8 µM (inactive) in the test on EKVX; 3.27 µM (inactive) in the test with OVCAR-8; 2.54 µM (inactive) with LOX IMVI. The GI50 in the test on RPMI-8226 is 0.597 µM (active); with SN12C, 2.97 µM (inactive); with HOP-62 it was 15.2 µM (inactive); in the test with SK-MEL-2 it was 2.31 µM (inactive); in the test with RXF 393 it was 2.33 µM (inactive); in the test with NCI-H226, 4.02 µM (inactive). In addition, the GI50 in the test on CAKI-1 was 6.01 µM (inactive); with MOLT-4, 1.82 µM (inactive); in the test with SK-MEL-28 it was 2.95 µM (inactive); in the test with DU-145, 4.37 µM (inactive); in the test on HL-60, 1.41 µM (inactive); with KM12 it was 1.07 µM (active).

`COc1ccc(CNc2nc(NCc3ccc(OC)cc3)nc(NC3CCCC3)n2)cc1`: the GI50 in the test with OVCAR-4 is > 25.4 µM (inactive); with NCI/ADR-RES, 2.7 µM (inactive); in the test on OVCAR-5, 3.63 µM (inactive); in the test with EKVX, 19.9 µM (inactive); in the test on OVCAR-8, 4.06 µM (inactive); in the test with LOX IMVI, 5.78 µM (inactive). The GI50 with SR is 2.67 µM (inactive); with RPMI-8226, 2.24 µM (inactive); with SN12C, > 19.8 µM (inactive); in the test with HOP-62, 3.07 µM (inactive); in the test on RXF 393, 0.665 µM (active); in the test with NCI-H226 it was 5.07 µM (inactive). Also, the GI50 with CAKI-1 was 4.02 µM (inactive); in the test with MOLT-4, 4.59 µM (inactive); in the test on SK-MEL-28, 10.9 µM (inactive); in the test with DU-145, 3.44 µM (inactive); with HL-60, 3.34 µM (inactive); in the test with KM12 it was 0.28 µM (active).

As to `Cc1cn(C(CO)OC(CO)CN(O)C2C3CC4CC(C3)CC2C4)c(=O)[nH]c1=O` (configuration not stated), the GI50 with OVCAR-4, with OVCAR-5, in the test with EKVX, in the test with OVCAR-8, in the test with SR and in the test with RPMI-8226 was > 100 µM (inactive) in each case. Further, the GI50 with MDA-N, in the test with SN12C, in the test with HOP-62, in the test on SK-MEL-2, in the test with NCI-H226 and in the test with CAKI-1 was > 100 µM (inactive) each time. For the same compound, the GI50 in the test on MOLT-4, with SK-MEL-28, with DU-145, in the test on HL-60 and in the test on KM12 was > 100 µM (inactive) each time.

Take `O=[N+]([O-])c1ccc2c(c1)c(S(=O)(=O)O)cc1nonc12`: the GI50 in the test on OVCAR-4, with NCI/ADR-RES, in the test with OVCAR-5, in the test with EKVX, in the test with OVCAR-8 and in the test on LOX IMVI was > 100 µM (inactive) each time. The GI50 in the test with SR, with RPMI-8226, in the test on MDA-N, with SN12C, in the test with HOP-62 and in the test with SK-MEL-2 was > 100 µM (inactive) throughout. Besides, the GI50 in the test on NCI-H226, in the test with CAKI-1, in the test with MOLT-4, in the test on SK-MEL-28, in the test with HL-60 and with KM12 was > 100 µM (inactive) throughout.

For `COc1cc2c(cc1OCCCN1CCN(C)CC1)N=C[C@@H]1CCCN1C2=O`, the GI50 is 2.15 µM (inactive) in the test on OVCAR-4; 3.5 µM (inactive) in the test on NCI/ADR-RES; 2.27 µM (inactive) with OVCAR-5; 2.03 µM (inactive) in the test with EKVX; 2.58 µM (inactive) with OVCAR-8; 1.49 µM (inactive) in the test with LOX IMVI. Further, the GI50 in the test with SR is 0.0887 µM (active); with RPMI-8226 it was 1.04 µM (active); in the test on SN12C, 3.57 µM (inactive); in the test with HOP-62, 3.44 µM (inactive); in the test with SK-MEL-2, 2.42 µM (inactive); with RXF 393, 1.87 µM (inactive). Also, the GI50 with NCI-H226 is 1.93 µM (inactive); with CAKI-1, 1.25 µM (inactive); in the test on MOLT-4, 0.32 µM (active); in the test with SK-MEL-28, 1.9 µM (inactive); in the test with DU-145, 2.25 µM (inactive); in the test with HL-60 it was 1.41 µM (inactive). Also, the GI50 with KM12 is 1.57 µM (inactive).

A word on the GI50: it is the concentration giving 50% growth inhibition.
